Test results as given in patent US20100292334A1, “N-ACYLHYDRAZONE DERIVATIVES USEFUL AS MODULATORS OF NICOTINIC ACETYLCHOLINE RECEPTORS” (NeuroSearch A/S, priority 2007, published 2010).

Assays:
[1] = target: T1, wild-type nAChR α7 receptors (Homo sapiens, UniProt P36544); experiment: Positive modulation of nAChR α7 receptors expressed in Xenopus laevis oocytes, two-electrode voltage clamp; type: cell-based
T1 construct: expressed in transfected cells; host or cells: Xenopus laevis oocytes
Procedure: In this example the positive modulation of wild-type nAChR α7 receptors by Compound 3 (i.e. 4-Hydroxy-3-methoxy-benzoic acid [3-methyl-4-oxo-4H-naphthalen-(1E)-ylidene]-hydrazide; FIGS. 1A and 1B) was determined using nAChR α7 receptors heterologously expressed in Xenopus laevis oocytes.
The electrical current through the nAChR α7 channel was measured using conventional two-electrode voltage clamp and nAChR α7 currents were activated by applying pulses of agonist-containing solution onto the nAChR α7 expressing oocyte.
In brief, the oocytes were placed in a recording chambers and continuously super-fused with an Oocyte Ringer (OR) solution containing 90 mM NaCl, 2.5 mM KCl, 2.5 mM CaCl2, 1 mM MgCl2 and 5 mM HEPES (pH adjusted to 7.4). The oocytes were clamped at −60 mV and currents were induced by applying 20 s pulses of 100 μM acetylcholine dissolved in OR. The intervals between the acetylcholine applications were 5 minutes, during which the oocytes were washed with OR. The first three applications were control applications to insure a constant response level of 100 μM acetylcholine.
The positive modulation in the presence of Compound 3 was calculated as (test-control)/control*100% and the concentration response curve for this positive modulation was fitted to the sigmoidal logistic equation: I=Imax/(1+(EC50/[compound])n), where Imax represents the maximal modulation of the control response, EC50 is the concentration causing a half maximal response, and n is the slope coefficient.

T1 sequence (P36544 23-502): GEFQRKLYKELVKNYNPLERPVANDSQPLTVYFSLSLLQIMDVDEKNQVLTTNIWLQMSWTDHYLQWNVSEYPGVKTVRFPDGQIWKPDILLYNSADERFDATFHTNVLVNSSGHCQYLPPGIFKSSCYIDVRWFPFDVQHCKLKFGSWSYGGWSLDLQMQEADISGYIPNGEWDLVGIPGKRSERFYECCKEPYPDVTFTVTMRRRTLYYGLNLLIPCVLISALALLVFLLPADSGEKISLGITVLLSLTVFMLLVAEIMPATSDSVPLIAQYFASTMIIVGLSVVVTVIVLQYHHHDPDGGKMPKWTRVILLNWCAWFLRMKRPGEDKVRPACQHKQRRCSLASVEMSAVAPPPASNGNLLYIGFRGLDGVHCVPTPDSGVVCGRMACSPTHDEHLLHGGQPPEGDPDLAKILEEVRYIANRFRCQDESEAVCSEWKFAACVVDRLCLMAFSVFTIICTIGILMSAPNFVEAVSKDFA

Row | Structure (SMILES) | effect on the acetylcholine-induced current amplitude ([1]; 0.01-31.6 μM applied 30 s before and during 100 μM acetylcholine) | Imax (maximal modulation of the control response) ([1]; Xenopus laevis oocytes clamped at −60 mV, 100 μM acetylcholine, (test-control)/control*100%, fitted maximum) | EC50 ([1]; Xenopus laevis oocytes clamped at −60 mV, currents induced by 100 μM acetylcholine, compound 0.01-31.6 μM applied 30 s before and during acetylcholine, read-out: EC50 (concentration causing a half maximal response) of positive modulation) | melting point
1 | COc1cc(C(=O)N/N=C2\C=C(C)C(=O)c3ccccc32)ccc1O [Compound 3, 4-Hydroxy-3-methoxy-benzoic acid [3-methyl-4-oxo-4H-naphthalen-(1E)-ylidene]-hydrazide] | robust increase | 98% | 490 nM | 254.8 to 255.6 °C
2 | CC(=O)Nc1ccc(C(=O)N/N=C2\C=C(C)C(=O)c3ccccc32)cc1 [Compound 5, N-{-4-[3-Methyl-4-oxo-4H-naphthalen-(1E)-ylidene-hydrazinocarbonyl]-phenyl}-acetamide] | – | – | – | 280.5 to 280.8 °C
3 | COc1ccc(C(=O)N/N=C2\C=C(C)C(=O)c3ccccc32)cc1 [Compound 2, 4-Methoxy-benzoic acid [3-methyl-4-oxo-4H-naphthalen-(1E)-ylidene]-hydrazide] | – | – | – | 252.9 to 253.4 °C
4 | CC1=C/C(=N\NC(=O)c2ccc(O)cc2)c2ccccc2C1=O [Compound 1, 4-Hydroxy-benzoic acid [3-methyl-4-oxo-4H-naphthalen-(1E)-ylidene]-hydrazide] | – | – | – | 274.3 to 275.7 °C
5 | CC1=C/C(=N\NC(=O)c2ccc3[nH]ccc3c2)c2ccccc2C1=O [Compound 4, 1H-Indole-5-carboxylic acid [3-methyl-4-oxo-4H-naphthalen-(1E)-ylidene]-hydrazide] | – | – | – | 251.9 to 252.9 °C
6 | CC1=C/C(=N/NC(=O)c2ccc(C#N)cc2)c2ccccc2C1=O [Compound 6, 4-Cyano-benzoic acid [3-methyl-4-oxo-4H-naphthalen-(1Z)-ylidene]-hydrazide] | – | – | – | 290.3 to 292.7 °C
